Data: patent publication US20150141435A1, “2-PYRIDONE ANTIMICROBIAL COMPOSITIONS” (Emergent BioSolutions, priority 2010, published 2015)
In brackets after ≈: the same amount, converted by molar mass. Counter-ions that a name gives are not always drawn. Like-named read-outs stand apart in the source and are kept apart here.

Legend:
Assay type in all cases: cell-based
E. coli ATCC 25922 = test: MIC, CLSI broth microdilution (Table 2); conditions: Escherichia coli
E. faecalis ATCC 29212 = test: MIC, CLSI broth microdilution (Table 1); conditions: Enterococcus faecalis
H. influenzae ATCC 49247 = test: MIC, CLSI broth microdilution (Table 2); conditions: Haemophilus influenzae
[1] = test system: S. maltophilia ATCC 17677; test: MIC, CLSI broth microdilution (Table 2); conditions: Stenotrophomonas maltophilia
P. aeruginosa ATCC 27853 = test: MIC, CLSI broth microdilution (Table 2); conditions: Pseudomonas aeruginosa
E. faecium ATCC 19434 = test: MIC, CLSI broth microdilution (Table 1); conditions: Enterococcus faecium
S. pneumonia ATCC 49619 = test: MIC, CLSI broth microdilution (Table 1); conditions: Streptococcus pneumoniae
S. aureus ATCC 25923 = test: MIC, CLSI broth microdilution (Table 1); conditions: Staphylococcus aureus
[2] = test system: S. aureus ATCC 43300 (MRSA, FQ-S); test: MIC, CLSI broth microdilution (Table 1); conditions: Staphylococcus aureus, read-out: MIC S. aureus ATCC 43300 (MRSA, FQ-S)
A. baumannii ATCC 19606 = test: MIC, CLSI broth microdilution (Table 2); conditions: Acinetobacter baumannii
K. pneumoniae ATCC 33495 = test: MIC, CLSI broth microdilution (Table 2); conditions: Klebsiella pneumoniae
[3] = test system: S. aureus BAA-1720 (MRSA, FQ-R); test: MIC, CLSI broth microdilution (Table 1); conditions: Staphylococcus aureus; Gram positive; MHB, 37° C., 16-20 hours; read-out: MIC S. aureus BAA-1720 (MRSA, FQ-R)
[4] = ATCC25922, Gram negative, MHB, 37° C., 16-20 hours, read-out: MIC E. coli ATCC 25922
[5] = ATCC29212, Gram positive, MHB, 37° C., 16-20 hours, read-out: MIC E. faecalis ATCC 29212
[6] = ATCC49247, Gram negative, MHB, 37° C., 16-20 hours, read-out: MIC H. influenzae ATCC 49247
[7] = ATCC17677, Gram negative, MHB, 37° C., 16-20 hours, read-out: MIC S. maltophilia ATCC 17677
[8] = ATCC27853, Gram negative, MHB, 37° C., 16-20 hours, read-out: MIC P. aeruginosa ATCC 27853
[9] = ATCC19434, Gram positive, MHB, 37° C., 16-20 hours, read-out: MIC E. faecium ATCC 19434
[10] = ATCC49619, Gram positive, MHB, 37° C., 16-20 hours, read-out: MIC S. pneumonia ATCC 49619
[11] = ATCC25923, Gram positive, MHB, 37° C., 16-20 hours, read-out: MIC S. aureus ATCC 25923
[12] = Gram positive, MHB, 37° C., 16-20 hours
[13] = ATCC19606, Gram negative, MHB, 37° C., 16-20 hours, read-out: MIC A. baumannii B. ATCC 19606
[14] = ATCC33495, Gram negative, MHB, 37° C., 16-20 hours, read-out: MIC K. pneumoniae ATCC 33495
[15] = ATCC25922, read-out: MIC E. coli ATCC 25922
[16] = ATCC29212, read-out: MIC E. faecalis ATCC 29212
[17] = ATCC49247, read-out: MIC H. influenzae ATCC 49247
[18] = ATCC17677, read-out: MIC S. maltophilia ATCC 17677
[19] = ATCC49619, read-out: MIC S. pneumonia ATCC 49619
[20] = ATCC25923, read-out: MIC S. aureus ATCC 25923
[21] = ATCC19606, read-out: MIC A. baumannii B. ATCC 19606
[22] = ATCC33495, read-out: MIC K. pneumoniae ATCC 33495

| MIC (E. coli ATCC 25922; [4]) [µg/mL] | MIC (E. faecalis ATCC 29212; [5]) [µg/mL] | MIC (H. influenzae ATCC 49247; [6]) [µg/mL] | MIC [1, 7] [µg/mL] | MIC (P. aeruginosa ATCC 27853; [8]) [µg/mL] | MIC (E. faecium ATCC 19434; [9]) [µg/mL] | MIC (S. pneumonia ATCC 49619; [10]) [µg/mL] | MIC (S. aureus ATCC 25923; [11]) [µg/mL] | MIC [2, 12] [µg/mL] | MIC (A. baumannii ATCC 19606; [13]) [µg/mL] | MIC (K. pneumoniae ATCC 33495; [14]) [µg/mL] | MIC [3] [µg/mL] | Compound | other results |
| --- | --- | --- | --- | --- | --- | --- | --- | --- | --- | --- | --- | --- | --- |
| 0.25 | 0.064 | 0.016 to 0.032 | 0.5 | 2 | 0.5 to 1 | 0.25 | 0.016 to 0.032 | 0.016 | 0.5 | 0.5 to 1 | 0.5 | Cc1ccc(-c2ccn3c(=O)c(C(=O)O)cc(C4CC4)c3c2C)cc1 [Example 33 K salt, 1-cyclopropyl-8-(4-methyl-phenyl)-9-methyl-4-oxo-4H-quinolizine-3-carboxylic acid] | – |
| 0.032 | 0.125 | 0.008 to 0.016 | 0.125 | 0.5 | 2 | 0.032 | 0.032 | 0.032 | 0.25 | 0.125 to 0.5 | 0.5 | Cc1c(N2CCC[C@H](N)C2)ccn2c(=O)c(C(=O)O)cc(C3CC3)c12 [Example 35 K salt, 8-[(3S)-3-amino-1-piperidyl]-1-cyclopropyl-9-methyl-4-oxo-quinolizine-3-carboxylic acid] | – |
| 0.032 (≈ 0.0797 µM) | 0.25 (≈ 0.623 µM) | 0.032 (≈ 0.0797 µM) | 0.125 (≈ 0.311 µM) | 2 (≈ 4.98 µM) | 4 (≈ 9.96 µM) | 0.125 (≈ 0.311 µM) | 0.064 (≈ 0.159 µM) | 0.064 (≈ 0.159 µM) | 0.5 (≈ 1.25 µM) | 0.125 (≈ 0.311 µM) | 4 (≈ 9.96 µM) | COc1c(N2C[C@@H]3CCCN[C@@H]3C2)c(F)cc2c(=O)c(C(=O)O)cn(C3CC3)c12 [Moxyfloxacin, reference compound] | – |
| 0.064 | 4 | 0.064 | 1 | 1 | > 8 | 2 | 0.5 | 0.5 | 1 | 0.125 to 0.5 | > 8 | Cc1c(N2CCNCC2)ccn2c(=O)c(C(=O)O)cc(C3CC3)c12 [Example 34 K salt, 1-cyclopropyl-9-methyl-4-oxo-8-piperazin-1-yl-quinolizine-3-carboxylic acid] | – |
| 0.25 | 0.064 | 0.016 | 1 | > 8 | 8 | 0.125 | 0.016 | 0.016 | 0.5 to 1 | 1 | 0.5 | Cc1c(-c2ccc(NS(C)(=O)=O)cc2)ccn2c(=O)c(C(=O)O)cc(C3CC3)c12 [Example 14 K salt, 1-cyclopropyl-9-methyl-8-(4-(methylsulfonamido)-phenyl)-4-oxo-4H-quinolizine-3-carboxylic acid] | – |
| > 8 | 0.5 | 0.064 | > 8 | > 8 | > 8 | 1 | 2 | 0.125 | > 8 | > 8 | 8 | Cc1c(-c2ccc(C(=O)O)cc2)ccn2c(=O)c(C(=O)O)cc(C3CC3)c12 [Example 37 K salt, 8-(4-carboxy-phenyl)-1-cyclopropyl-9-methyl-4-oxo-4H-quinolizine-3-carboxylic acid] | – |
| ≤ 0.004 | 0.125 | ≤ 0.004 | 0.064 | 0.125 | 1 | 0.064 | 0.032 | 0.032 | 0.064 | 0.016 | 1 | Cc1c(N2CC[C@H](N)C2)c(F)cn2c(=O)c(C(=O)O)cc(C3CC3)c12 [Example 26 K salt, 8-[(3S)-3-aminopyrrolidin-1-yl]-1-cyclopropyl-7-fluoro-9-methyl-4-oxo-quinolizine-3-carboxylic acid] | – |
| 0.125 | 0.032 | 0.016 | 0.5 | 4 | 4 | 0.125 | 0.008 | 0.016 | 0.25 | 0.25 | 0.5 | Cc1c(-c2ccc3[nH]ccc3c2)ccn2c(=O)c(C(=O)O)cc(C3CC3)c12 [Example 22 K salt, 1-cyclopropyl-8-(1H-indol-5-yl)-9-methyl-4-oxo-4H-quinolizine-3-carboxylic acid] | – |
| 0.125 | 0.032 | 0.008 | 0.25 | 8 | 1 | 0.125 | 0.016 | 0.016 | 0.125 | 0.25 | 0.25 | Cc1c(-c2cccc(N)c2)c(F)cn2c(=O)c(C(=O)O)cc(C3CC3)c12 [Example 4 K salt, 8-(3-amino-phenyl)-1-cyclopropyl-7-fluoro-9-methyl-4-oxo-4H-quinolizine-3-carboxylic acid] | – |
| 0.125 | 0.032 | 0.008 | 0.25 to 0.5 | 2 | 0.5 | 0.125 | 0.008 | 0.008 | 0.25 | 0.25 | 0.5 | Cc1c(-c2cccc(F)c2)ccn2c(=O)c(C(=O)O)cc(C3CC3)c12 [Example 10 K salt, 1-cyclopropyl-8-(3-fluoro-phenyl)-9-methyl-4-oxo-4H-quinolizine-3-carboxylic acid] | – |
| 0.064 | 0.016 | ≤ 0.004 | 0.125 | 2 | 0.25 | 0.032 | ≤ 0.004 | ≤ 0.004 | 0.064 | 0.125 | 0.125 | Cc1c(-c2ccc(N)c(Cl)c2)ccn2c(=O)c(C(=O)O)cc(C3CC3)c12 [Example 11 K salt, 8-(4-amino-3-chloro-phenyl)-1-cyclopropyl-9-methyl-4-oxo-4H-quinolizine-3-carboxylic acid] | – |
| 0.064 to 0.125 | 0.008 to 0.016 | ≤ 0.004 | 0.25 | > 8 | > 8 | 0.016 | ≤ 0.004 | ≤ 0.004 | 0.125 | 1 to 2 | 0.064 | Cc1c(-c2cc(F)c(N)cc2F)c(F)cn2c(=O)c(C(=O)O)cc(C3CC3)c12 [Example 38 K salt, 8-(4-amino-2,5-difluoro-phenyl)-1-cyclopropyl-7-fluoro-9-methyl-4-oxo-4H-quinolizine-3-carboxylic acid] | – |
| – | – | – | – | – | – | – | – | – | – | – | – | Cc1c(-c2ccc(C(N)=O)cc2)c(F)cn2c(=O)c(C(=O)O)cc(C3CC3)c12 [Example 6 K salt, 8-(4-carbamoyl-phenyl)-1-cyclopropyl-7-fluoro-9-methyl-4-oxo-4H-quinolizine-3-carboxylic acid] | MIC (E. coli ATCC 25922; [15]): 0.125 µg/mL; MIC (E. faecalis ATCC 29212; [16]): 0.016 µg/mL; MIC (H. influenzae ATCC 49247; [17]): ≤ 0.004 µg/mL; MIC [1, 18]: 0.5 µg/mL; MIC (S. pneumonia ATCC 49619; [19]): 0.032 µg/mL; MIC (S. aureus ATCC 25923; [20]): 0.008 to 0.016 µg/mL; MIC [2]: 0.008 µg/mL; MIC (A. baumannii ATCC 19606; [21]): 0.5 µg/mL; MIC (K. pneumoniae ATCC 33495; [22]): 0.5 µg/mL |
| – | – | – | – | – | – | – | – | – | – | – | – | Cc1c(-c2ccc(N)cc2)c(F)cn2c(=O)c(C(=O)O)cc(C3CC3)c12 [Example 5 K salt, 8-(4-amino-phenyl)-1-cyclopropyl-7-fluoro-9-methyl-4-oxo-4H-quinolizine-3-carboxylic acid] | MIC (E. coli ATCC 25922; [15]): 0.064 µg/mL; MIC (E. faecalis ATCC 29212; [16]): 0.016 to 0.032 µg/mL; MIC (H. influenzae ATCC 49247; [17]): ≤ 0.004 µg/mL; MIC [1, 18]: 0.125 µg/mL; MIC (P. aeruginosa ATCC 27853; ATCC27853, read-out: MIC P. aeruginosa ATCC 27853): 2 µg/mL; MIC (E. faecium ATCC 19434; ATCC19434, read-out: MIC E. faecium ATCC 19434): 0.5 µg/mL; MIC (S. pneumonia ATCC 49619; [19]): 0.032 µg/mL; MIC (S. aureus ATCC 25923; [20]): 0.008 µg/mL; MIC [2]: 0.008 µg/mL; MIC (A. baumannii ATCC 19606; [21]): 0.064 µg/mL; MIC (K. pneumoniae ATCC 33495; [22]): 0.125 to 0.25 µg/mL |
